Measurements published in patent US6916802B2, “Amino ceramide-like compounds and therapeutic methods of use” (Genzyme Corporation, priority 2002, dated 2005).
Marks after values point to notes of the source that are not given here. One block for each compound: values may come before it.

Assays:
[1] = substituent of phenyl group; estimated from the Table in Hogberg et al.; cited from earlier work
[2] = system: three of the tumor cell lines; assay: Growth tests of chemotherapeutic agents in the Drug Evaluation Core Laboratory; assay type: cell-based; details: range over three of the tumor cell lines
Method: (§1) Growth of cell lines. Comparisons of different inhibitors with regard to suppression of human cancer cell growth were made by the University of Michigan Cancer Center in vitro Drug Evaluation Core Laboratory. MCF-7 breast carcinoma cells, HT-29 colon adenocarcinoma cells, H-460 lung large cell carcinoma cells, and 9L brain gliosarcoma cells were grown in RPMI 1640 medium with 5% fetal bovine serum, 2 mM glutamine, 50 units/ml of penicillin, […] of streptomycin, and 0.1 mg/ml of neomycin. UMSCC-10A head and neck squamous carcinoma cells were grown in minimal essential medium with Earle salts and the same supplements. Medium components were from Sigma Chemical Co. Cells were plated in 96-well microtiter plates (1000 cells/well for H-460 and 9L cells, and 2000 cells/well for the other lines), and the test compounds were added 1 day later. The stock inhibitor solutions, 2 mM in 2 mM BSA, were diluted with different amounts of additional 2 mM BSA, then each solution was diluted 500-fold with growth medium to obtain the final concentrations indicated in the Figures and Tables.
(§2) Five days after plating the H-460 and 9L cells, or 6 days for the other lines, cell growth was evaluated by staining the adhering cells with sulforhodamine B and measuring the absorbance at 520 nm (Skehan, P. et al., “New Colorimetric Cytotoxicity Assay for Anticancer-Drug Screening,” J. Natl. Cancer Inst., 82:1107-1112 (1990)). The absorbance of the treated cultures is reported as percent of that of control cultures, to provide an estimate of the fraction of the cells that survived, or of inhibition of growth rate.

[3] = system: GlcCer synthase of MDCK cell homogenates; assay: Inhibition of ceramide glucosyltransferase (GlcCer synthase) of MDCK cell homogenates; assay type: biochemical, canine; details: triplicate ± SD, samples partly isomer mixtures
Method: Assay of sphingolipid enzymes. The inhibitors were evaluated for their effectiveness against the GlcCer synthase of MDCK cell homogenates by incubation in a thermostatted ultrasonic bath (Radin N. S. et al., “Ultrasonic Baths as Substitutes for Shaking Incubator Baths,” Enzyme, 45:67-70 (1991)) with octanoyl sphingosine and uridinediphospho[^3H]glucose (Shukla, G. S. et al., “Glucosylceramide Synthase of Mouse Kidney: Further Characterization and Improved Assay Method,” Arch. Biochem. Biophys., 283:372-378 (1990)). The lipoidal substrate (85 μg) was added in liposomes made from 0.57 mg dioleoylphosphatidylcholine and 0.1 mg of Na sulfatide. Confluent cells were washed, then homogenized with a micro-tip sonicator at 0° C. for 3×30 sec; ˜0.2 mg of protein was used in each assay tube. In the case of the aromatic inhibitors, the test compound was simply evaporated to dryness from solution in the incubation tube. […] The aliphatic inhibitors, which appeared to be less soluble in water, were added as part of the substrate liposomes.

[4] = system: MCF-7 breast carcinoma cells; assay: Tumor cell growth in vitro (sulforhodamine B), MCF-7; assay type: cell-based, human; details: rounded off to one digit, read-out: Inhibition of tumor cell growth in vitro, IC50
Method: as §1, §2

[5] = system: HT-29 colon adenocarcinoma cells; assay: Tumor cell growth in vitro (sulforhodamine B), HT-29; assay type: cell-based, human; details: rounded off to one digit, read-out: Inhibition of tumor cell growth in vitro, IC50
Method: as §1, §2

[6] = system: 9L brain gliosarcoma cells; assay: Tumor cell growth in vitro (sulforhodamine B), 9L; assay type: cell-based; details: 9L; rounded off to one digit; read-out: Inhibition of tumor cell growth in vitro, IC50
Method: as §1, §2

SMILES: CCCCCCCCCCCCCCCC(=O)N[C@H](CN1CCCC1)[C@H](O)c1cccc(OC)c1 [m-methoxy-P4]
σ + π [1]: 0.10

SMILES: CCCCCCCCCCCCCCCC(=O)NC(CN1CCC1)C(O)c1ccccc1 (mixture of isomers) [BML-123]
Inhibition at 5 μM ([3]; 5 μM inhibitor): 15 ± 0.8^f % | % Inhibition at 80 μM ([3]; 80 μM inhibitor): 86 ± 0.1^d % | IC50 [4]: 2 µM | IC50 [5]: 2 µM | IC50 [6]: 2 µM

SMILES: CCCCCCCCCCCCCCCC(=O)N[C@H](CN1CCCC1)[C@H](O)c1ccc(OC)cc1 [D-threo-p-methoxy-P4]
σ + π [1]: −0.29

Further lines, results first:

IC50 [2]: 0.07 to 0.2 µM
SMILES: O=c1[nH]cc(F)c(=O)[nH]1 [fluorouracil]

IC50 [2]: 0.03 to 0.2 µM
SMILES: CN(Cc1cnc2nc(N)nc(N)c2n1)c1ccc(C(=O)N[C@@H](CCC(=O)O)C(=O)O)cc1 [methotrexate]
